Data set [1] concerns gram-positive organisms (susceptible and resistant strains). Put plainly: in vitro antibacterial activity (MIC). The class given is cell-based. As to the method: In addition, the minimum inhibitory concentration (MIC) value for daptomycin against susceptible strains is typically 4-fold lower than that of vancomycin. […] Thus, in a preferred embodiment, purified daptomycin, lipopeptide antibiotic, or pharmaceutical compositions thereof are administered according to the methods of this invention to a patient in need of rapidly acting antibiotic therapy.

Data set [2] is described as follows: critical micellar concentration (cmc) of daptomycin. It is filed as physicochemical. From the text:
Micelle formation causes changes in several bulk physical properties of a solution including changes in osmotic pressure, turbidity, electrical conductance, surface tension, co-ion and counterion activities (in the case of ionic, amphipathic molecules), refractive index, UV and NMR spectra, partial molar volume, viscosity, diffusion coefficient and dye solubilization. The cmc can be determined by measuring one or more of these micelle-dependent physical properties as a function of concentration of the amphipathic molecule. The size and shape of micelles can be determined by dynamic laser light scattering, ultracentrifugation, viscosity and/or low-angle X-ray scattering experiments. Micelles can also exist in liquid crystal phases.
In another embodiment of the invention, the pH of a solution comprising a lipopeptide is manipulated to influence the cmc of the lipopeptide. In a preferred embodiment, the lipopeptide is daptomycin or a daptomycin-related molecule, such as those described supra. In an even more preferred embodiment, the lipopeptide is daptomycin. In one embodiment, the pH is manipulated so that the concentration of a lipopeptide is higher than the cmc at one pH and is lower than the cmc at another pH. For instance, for daptomycin, the cmc at pH 4.0 in water at a temperature of 20-25° C. was much lower than at pH 6.0 or 7.5. […]

Data set [3] is described as follows: size of daptomycin micelles by light scatter (Zetasizer). The class given is physicochemical. Conditions: for micelle size: 1 mg/mL, pH approximately 4.0 in water, light scatter. As to the method: The daptomycin micelles have an average size of 5.4 nm (54 A).
Daptomycin micelles were produced using daptomycin at a concentration of 1.0 mg/mL in water at pH 4.0 at 25° C. The size of a daptomycin micelle was measured using a Zetasizer™ (Malvern Instruments, Model 3000 HS). The count rate of 36.3, the cell type was a capillary cell, the detection angle (deg) was 90°, and the wavelength (nm) was 633.

For the compound `CCCCCCCCCC(=O)N[C@@H](Cc1c[nH]c2ccccc12)C(=O)N[C@H](CC(N)=O)C(=O)N[C@@H](CC(=O)O)C(=O)N[C@@H]1C(=O)NCC(=O)N[C@@H](CCCN)C(=O)N[C@@H](CC(=O)O)C(=O)N[C@H](C)C(=O)N[C@@H](CC(=O)O)C(=O)NCC(=O)N[C@H](CO)C(=O)N[C@@H]([C@H](C)CC(=O)O)C(=O)N[C@@H](CC(=O)c2ccccc2N)C(=O)O[C@@H]1C` [daptomycin], the “antibacterial activity against classically resistant strains relative to classically susceptible strains” value in data set [1] (in vitro experiments) was “comparable”. Further, the “MIC, fold lower than that of vancomycin” value in data set [1] (susceptible strains) is reported as approximately 4 fold. In addition, the “aggregation state (monomeric or micellar)” value in data set [2] (150 mg/mL daptomycin, pH 6.5, 150 mM to 300 mM NaCl, 4° C.) is recorded as “monomeric”. Besides, in data set [2] (pH 4.0 in water, 20-25° C.), the “critical micellar concentration (cmc)” value is given as “approximately 400 μg/mL”. Besides, the “diameter of the micelle” value in data set [3] (1.0 mg/mL in water, pH 4.0, 25° C., Zetasizer) amounted to 54 A. Moreover, the micelle size in data set [3] is given as 5.4 nm; in data set [3] (listed as Daptomycin) it was “approximately 5.4 nm”.
